Measurements as given in patent publication US10800791B2, “Triazole ACC inhibitors and uses thereof” (Gilead Apollo, LLC, priority 2015, dated 2020).
In brackets after ≈: the same amount, converted by molar mass. Read-outs that look alike come from different tables or passages of the source.

Columns and labels:
fungal (fACC2) = fungal (fACC2) (UniProt Q00955); conditions: read-out: fACC2 (in vitro ACC2 Inhibition Assay, IC50), ADP-Glo, 5 nM ACC2, 20 μM ATP, 20 μM acetyl-CoA
Botrtyis cinerea (Bc) = assay: Growth inhibition assay of fungal pathogens, Bc; type: cell-based; conditions: 48 h
How it was run: (§1)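 Read-out: OD600 plus visual rating at 24 and 48 h, blank (media + 2% DMSO) subtracted. Percent inhibition was derived at 48 h versus the 2% DMSO control. Spores were grown in 17% V8 broth with compound at 50/10/2 or 2/0.4/0.08 ppm final.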

Diplodia maydis (Dm) = assay: Growth inhibition assay of fungal pathogens, Dm; type: cell-based; conditions: Stenocarpella maydis, 48 h
How it was run: as §1

Septoria tritici (St) = assay: Growth inhibition assay of fungal pathogens, St; type: cell-based; conditions: Zymoseptoria tritici, 48 h
How it was run: as §1

[1] = tested on: Collectotrichum graminicola (Cg); assay: Growth inhibition assay of fungal pathogens, Cg; type: cell-based; conditions: 48 h
How it was run: as §1

human (hACC2) = human (hACC2) (Homo sapiens, UniProt O00763); assay: In vitro ACC inhibition assay (ADP-Glo), hACC2; type: biochemical; conditions: 5 nM ACC2, 20 μM ATP, 20 μM acetyl-CoA
Sequence of human (hACC2) (O00763 whole entry): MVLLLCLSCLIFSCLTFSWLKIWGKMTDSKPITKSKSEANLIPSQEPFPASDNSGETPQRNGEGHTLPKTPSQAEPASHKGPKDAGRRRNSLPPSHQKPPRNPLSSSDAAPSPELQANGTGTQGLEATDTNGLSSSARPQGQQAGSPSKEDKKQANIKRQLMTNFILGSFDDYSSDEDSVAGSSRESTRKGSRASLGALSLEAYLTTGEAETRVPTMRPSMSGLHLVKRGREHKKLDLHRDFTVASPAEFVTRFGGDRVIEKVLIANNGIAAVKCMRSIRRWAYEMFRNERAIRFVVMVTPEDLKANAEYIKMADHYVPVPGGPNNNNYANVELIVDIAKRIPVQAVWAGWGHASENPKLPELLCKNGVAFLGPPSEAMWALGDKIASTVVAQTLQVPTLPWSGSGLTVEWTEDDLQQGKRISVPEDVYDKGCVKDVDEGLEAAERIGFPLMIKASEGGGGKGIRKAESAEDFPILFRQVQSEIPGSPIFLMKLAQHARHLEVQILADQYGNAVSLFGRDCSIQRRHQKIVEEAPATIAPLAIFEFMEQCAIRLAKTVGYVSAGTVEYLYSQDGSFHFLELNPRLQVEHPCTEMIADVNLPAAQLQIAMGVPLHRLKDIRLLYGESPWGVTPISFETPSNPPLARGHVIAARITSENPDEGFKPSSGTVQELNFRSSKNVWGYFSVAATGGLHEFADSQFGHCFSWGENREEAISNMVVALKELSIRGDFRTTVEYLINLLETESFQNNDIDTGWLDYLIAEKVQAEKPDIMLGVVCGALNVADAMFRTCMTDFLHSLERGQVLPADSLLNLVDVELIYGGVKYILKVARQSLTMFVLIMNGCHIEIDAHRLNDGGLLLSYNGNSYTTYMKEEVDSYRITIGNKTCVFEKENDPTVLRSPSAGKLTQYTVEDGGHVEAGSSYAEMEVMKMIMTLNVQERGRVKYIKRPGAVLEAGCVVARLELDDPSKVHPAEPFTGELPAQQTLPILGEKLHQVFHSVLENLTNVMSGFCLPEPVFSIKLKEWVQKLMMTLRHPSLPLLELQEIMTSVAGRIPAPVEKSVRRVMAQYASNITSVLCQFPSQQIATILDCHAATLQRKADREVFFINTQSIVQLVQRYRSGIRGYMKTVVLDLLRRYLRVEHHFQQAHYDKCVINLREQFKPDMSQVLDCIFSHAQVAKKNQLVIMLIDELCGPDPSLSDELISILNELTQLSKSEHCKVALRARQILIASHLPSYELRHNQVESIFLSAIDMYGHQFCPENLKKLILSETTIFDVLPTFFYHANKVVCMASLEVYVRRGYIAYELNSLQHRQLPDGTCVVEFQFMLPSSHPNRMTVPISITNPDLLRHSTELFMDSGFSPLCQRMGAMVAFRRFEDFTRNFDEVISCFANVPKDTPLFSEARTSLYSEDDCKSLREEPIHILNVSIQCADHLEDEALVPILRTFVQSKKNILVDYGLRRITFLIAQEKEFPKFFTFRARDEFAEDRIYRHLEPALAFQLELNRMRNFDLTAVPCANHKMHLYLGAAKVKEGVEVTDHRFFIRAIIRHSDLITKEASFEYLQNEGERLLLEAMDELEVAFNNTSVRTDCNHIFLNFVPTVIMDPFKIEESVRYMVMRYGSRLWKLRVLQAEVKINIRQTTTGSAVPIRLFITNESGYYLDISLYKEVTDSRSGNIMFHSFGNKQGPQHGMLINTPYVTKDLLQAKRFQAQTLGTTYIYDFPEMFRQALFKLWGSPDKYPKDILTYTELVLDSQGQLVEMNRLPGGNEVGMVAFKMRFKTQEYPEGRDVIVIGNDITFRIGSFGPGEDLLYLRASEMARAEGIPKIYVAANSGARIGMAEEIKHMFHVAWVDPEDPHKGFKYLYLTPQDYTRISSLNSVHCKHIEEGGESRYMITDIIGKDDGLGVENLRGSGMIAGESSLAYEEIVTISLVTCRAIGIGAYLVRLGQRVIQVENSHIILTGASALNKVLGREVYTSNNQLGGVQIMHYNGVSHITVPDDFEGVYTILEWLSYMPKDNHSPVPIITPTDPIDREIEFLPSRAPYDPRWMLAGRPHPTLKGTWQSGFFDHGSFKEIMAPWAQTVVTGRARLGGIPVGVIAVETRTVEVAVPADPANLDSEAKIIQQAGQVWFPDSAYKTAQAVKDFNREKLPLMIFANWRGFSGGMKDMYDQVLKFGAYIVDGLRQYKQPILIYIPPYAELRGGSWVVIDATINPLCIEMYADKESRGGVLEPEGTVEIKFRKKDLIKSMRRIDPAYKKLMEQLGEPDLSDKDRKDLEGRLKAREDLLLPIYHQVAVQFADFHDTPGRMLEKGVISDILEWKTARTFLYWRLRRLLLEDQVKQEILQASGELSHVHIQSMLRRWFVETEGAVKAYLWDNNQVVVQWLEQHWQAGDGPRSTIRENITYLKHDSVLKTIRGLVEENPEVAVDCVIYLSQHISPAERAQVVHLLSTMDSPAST
Protocol: The detailed procedure is as follows. […] 10 μL ADP glo reagent was added. […] 20 μL kinase detection reagent was added.

C. parapsilosis = assay: Antifungal Activity Assay (broth microtiter MIC), C. parapsilosis; type: cell-based, Candida parapsilosis; conditions: Lodderomyces parapsilosis, ATCC22019, 48 h
How it was run: (§2)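 Endpoint: lowest concentration visibly inhibiting growth relative to control after 48 h. Inoculum of 2.5×10^3 CFU/mL final in RPMI 1640+MOPS, prepared from overnight 35° C agar cultures; test compounds diluted in water to 128 μg/mL before plating.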

[2] = tested on: Phytophthora capsici (Pc); assay: Growth inhibition assay of fungal pathogens, Pc; type: cell-based; conditions: 48 h
How it was run: as §1

Rhizoctonia solani (Rs) = assay: Growth inhibition assay of fungal pathogens, Rs; type: cell-based; conditions: 48 h
C. albicans = assay: Antifungal Activity Assay (broth microtiter MIC), C. albicans; type: cell-based, Candida albicans; conditions: Candida albicans, ATCC90028, 48 h
How it was run: as §2

[3] = Botrtyis cinerea, growth inhibition at 48 hours vs 2% DMSO control, read-out: Concentration at 90% Inhibition Bc
[4] = Botrtyis cinerea, growth inhibition vs 2% DMSO control at 48 hours, read-out: Concentration at 90% Inhibition Bc
[5] = Diplodia maydis, growth inhibition at 48 hours vs 2% DMSO control, read-out: Concentration at 90% Inhibition Dm
[6] = Diplodia maydis, growth inhibition vs 2% DMSO control at 48 hours, read-out: Concentration at 90% Inhibition Dm
[7] = Septoria tritici, growth inhibition at 48 hours vs 2% DMSO control, read-out: Concentration at 90% Inhibition St
[8] = Septoria tritici, growth inhibition vs 2% DMSO control at 48 hours, read-out: Concentration at 90% Inhibition St
[9] = Collectotrichum graminicola, growth inhibition at 48 hours vs 2% DMSO control, read-out: Concentration at 90% Inhibition Cg
[10] = Collectotrichum graminicola, growth inhibition vs 2% DMSO control at 48 hours, read-out: Concentration at 90% Inhibition Cg
[11] = Table 3a, ATCC 22019, 3 replicates, MIC recorded at 48 h, read-out: MIC, C. parapsilosis ATCC 22019
[12] = Table 3b (additional results), ATCC 22019, 3 replicates, MIC recorded at 48 h, read-out: MIC, C. parapsilosis ATCC 22019
[13] = growth inhibition at 48 hours vs 2% DMSO control, read-out: Concentration at 90% Inhibition Pc
[14] = growth inhibition vs 2% DMSO control at 48 hours, read-out: Concentration at 90% Inhibition Pc
[15] = mycelial plugs, growth inhibition at 48 hours vs 2% DMSO control, read-out: Concentration at 90% Inhibition Rs
[16] = mycelial plugs, growth inhibition vs 2% DMSO control at 48 hours, read-out: Concentration at 90% Inhibition Rs
[17] = Table 3a, ATCC 90028, 3 replicates, MIC recorded at 48 h, read-out: MIC, C. albicans ATCC 90028
[18] = Table 3b (additional results), ATCC 90028, 3 replicates, MIC recorded at 48 h, read-out: MIC, C. albicans ATCC 90028

Sequence of fungal (fACC2) (Q00955 whole entry): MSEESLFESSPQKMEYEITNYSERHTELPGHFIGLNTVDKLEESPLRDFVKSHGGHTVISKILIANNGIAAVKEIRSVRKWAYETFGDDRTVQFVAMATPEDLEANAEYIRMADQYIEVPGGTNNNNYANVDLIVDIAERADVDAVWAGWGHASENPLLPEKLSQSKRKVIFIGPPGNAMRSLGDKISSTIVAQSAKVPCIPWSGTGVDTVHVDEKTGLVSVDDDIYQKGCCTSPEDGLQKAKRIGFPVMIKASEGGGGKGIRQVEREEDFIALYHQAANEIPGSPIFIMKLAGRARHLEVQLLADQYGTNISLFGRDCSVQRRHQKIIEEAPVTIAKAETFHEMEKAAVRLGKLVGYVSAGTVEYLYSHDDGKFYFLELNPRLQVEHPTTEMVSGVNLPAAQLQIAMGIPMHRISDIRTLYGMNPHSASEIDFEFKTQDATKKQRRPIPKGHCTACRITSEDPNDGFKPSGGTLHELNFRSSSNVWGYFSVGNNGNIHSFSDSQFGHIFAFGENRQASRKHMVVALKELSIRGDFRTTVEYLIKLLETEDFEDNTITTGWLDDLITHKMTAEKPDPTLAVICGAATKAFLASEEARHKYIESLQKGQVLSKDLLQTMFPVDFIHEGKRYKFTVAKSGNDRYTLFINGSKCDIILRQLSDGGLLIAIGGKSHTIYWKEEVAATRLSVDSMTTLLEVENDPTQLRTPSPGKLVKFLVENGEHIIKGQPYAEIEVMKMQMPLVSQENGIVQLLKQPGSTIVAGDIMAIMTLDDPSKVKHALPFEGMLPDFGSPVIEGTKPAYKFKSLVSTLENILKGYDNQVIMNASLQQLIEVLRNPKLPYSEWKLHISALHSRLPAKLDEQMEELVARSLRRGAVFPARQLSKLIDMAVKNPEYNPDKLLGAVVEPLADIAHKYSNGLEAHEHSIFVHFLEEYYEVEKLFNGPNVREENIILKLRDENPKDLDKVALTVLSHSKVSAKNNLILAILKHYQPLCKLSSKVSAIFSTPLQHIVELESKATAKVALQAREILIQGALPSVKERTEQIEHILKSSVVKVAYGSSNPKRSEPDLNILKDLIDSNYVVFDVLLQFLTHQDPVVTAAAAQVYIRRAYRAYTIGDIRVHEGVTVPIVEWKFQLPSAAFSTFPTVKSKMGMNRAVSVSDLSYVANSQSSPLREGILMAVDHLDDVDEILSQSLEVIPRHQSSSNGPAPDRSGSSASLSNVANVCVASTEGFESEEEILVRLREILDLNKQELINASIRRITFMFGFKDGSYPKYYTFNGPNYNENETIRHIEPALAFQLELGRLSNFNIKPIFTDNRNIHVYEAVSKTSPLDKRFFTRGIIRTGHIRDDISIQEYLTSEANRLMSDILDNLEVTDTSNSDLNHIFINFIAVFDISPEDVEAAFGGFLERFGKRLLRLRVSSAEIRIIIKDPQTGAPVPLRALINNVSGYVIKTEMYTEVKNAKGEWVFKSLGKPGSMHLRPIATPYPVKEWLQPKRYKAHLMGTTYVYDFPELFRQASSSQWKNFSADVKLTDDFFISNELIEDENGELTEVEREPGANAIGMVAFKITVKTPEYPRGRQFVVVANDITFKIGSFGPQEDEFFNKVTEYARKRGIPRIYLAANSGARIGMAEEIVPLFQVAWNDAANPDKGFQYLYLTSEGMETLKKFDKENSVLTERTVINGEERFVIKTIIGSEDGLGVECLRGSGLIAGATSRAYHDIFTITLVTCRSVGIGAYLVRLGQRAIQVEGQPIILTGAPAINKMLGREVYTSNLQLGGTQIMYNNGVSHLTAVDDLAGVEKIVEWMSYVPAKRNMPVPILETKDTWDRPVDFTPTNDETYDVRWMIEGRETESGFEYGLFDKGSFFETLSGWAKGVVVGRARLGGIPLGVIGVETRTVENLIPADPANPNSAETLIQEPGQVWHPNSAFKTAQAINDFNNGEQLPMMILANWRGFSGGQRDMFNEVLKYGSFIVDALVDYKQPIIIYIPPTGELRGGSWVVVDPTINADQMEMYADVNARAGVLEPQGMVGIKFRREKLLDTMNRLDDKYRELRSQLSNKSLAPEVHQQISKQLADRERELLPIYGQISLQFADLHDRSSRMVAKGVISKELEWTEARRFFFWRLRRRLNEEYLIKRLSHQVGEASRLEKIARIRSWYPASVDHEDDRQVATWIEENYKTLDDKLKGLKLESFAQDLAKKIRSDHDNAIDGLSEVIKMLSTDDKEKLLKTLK

| SMILES | IC50 (fungal (fACC2); Table 2a) [nM] | IC50 (fungal (fACC2); Table 2b, additional results) [nM] | IC90 (Botrtyis cinerea (Bc); [3]) [µg/mL] | IC90 (Botrtyis cinerea (Bc); [4]) [µg/mL] | IC90 (Diplodia maydis (Dm); [5]) [µg/mL] | IC90 (Diplodia maydis (Dm); [6]) [µg/mL] | IC90 (Septoria tritici (St); [7]) [µg/mL] | IC90 (Septoria tritici (St); [8]) [µg/mL] | IC90 [1, 9] [µg/mL] | IC90 [1, 10] [µg/mL] | IC50 (human (hACC2); Table 2a) [nM] | IC50 (human (hACC2); Table 2b, additional results) [nM] | MIC (C. parapsilosis; [11]) [µg/mL] | MIC (C. parapsilosis; [12]) [µg/mL] | IC90 [2, 13] [µg/mL] | IC90 [2, 14] [µg/mL] | IC90 (Rhizoctonia solani (Rs); [15]) [µg/mL] | IC90 (Rhizoctonia solani (Rs); [16]) [µg/mL] | MIC (C. albicans; [17]) [µg/mL] | MIC (C. albicans; [18]) [µg/mL] | further results |
| --- | --- | --- | --- | --- | --- | --- | --- | --- | --- | --- | --- | --- | --- | --- | --- | --- | --- | --- | --- | --- | --- |
| COc1ccc(F)cc1[C@H](Cn1c(=O)n([C@H](C)C(=O)NC2CCC2)c(=O)c2c(C)c(-n3nccn3)sc21)OCCO [Compound I-84, (R)—N-cyclobutyl-2-(1-((R)-2-(5-fluoro-2-methoxyphenyl)-2-(2-hydroxyethoxy)ethyl)-5-methyl-2,4-dioxo-6-(2H-1,2,3-triazol-2-yl)-1,4-dihydrothieno[2,3-d]pyrimidin-3(2H)-yl)propanamide] | 0.4 to 1 | 0.3 to 1 | 0.4 (≈ 0.682 µM) | 0.4 (≈ 0.682 µM) | 0.4 (≈ 0.682 µM) | 0.4 (≈ 0.682 µM) | 2 (≈ 3.41 µM) | 10 (≈ 17 µM) | 0.08 (≈ 0.136 µM) | 0.08 (≈ 0.136 µM) | 5 to 10 | 5 to 10 | 0.25 to 1 (≈ 0.426 to 1.7 µM) | 0.25 to 1 (≈ 0.426 to 1.7 µM) | 2 (≈ 3.41 µM) | 2 (≈ 3.41 µM) | 0.08 (≈ 0.136 µM) | 0.08 (≈ 0.136 µM) | 1.1 to 2 (≈ 1.88 to 3.41 µM) | 2.01 to 4 (≈ 3.43 to 6.82 µM) |  |
| COc1ccc(F)cc1[C@H](Cn1c(=O)n([C@H](C)C(=O)N(C)C(C)C)c(=O)c2c(C)c(-n3nccn3)sc21)OCCO [Compound I-85, (R)-2-(1-((R)-2-(5-fluoro-2-methoxyphenyl)-2-(2-hydroxy-ethoxy)ethyl)-5-methyl-2,4-dioxo-6-(2H-1,2,3-triazol-2-yl)-1,4-dihydro-thieno[2,3-d]pyrimidin-3(2H)-yl)-N-isopropyl-N-methylpropanamide] | 0.4 to 1 | 0.3 to 1 | 2 (≈ 3.4 µM) | 2 (≈ 3.4 µM) | 0.08 (≈ 0.136 µM) | 0.08 (≈ 0.136 µM) | 2 (≈ 3.4 µM) | 10 (≈ 17 µM) | 0.08 (≈ 0.136 µM) | 0.08 (≈ 0.136 µM) | 10 to 40 | 10 to 40 | 0.25 to 1 (≈ 0.425 to 1.7 µM) | 2.01 to 4 (≈ 3.41 to 6.8 µM) | 2 (≈ 3.4 µM) | 2 (≈ 3.4 µM) | 0.08 (≈ 0.136 µM) | 0.08 (≈ 0.136 µM) | 0.25 to 1 (≈ 0.425 to 1.7 µM) | 1.01 to 2 (≈ 1.72 to 3.4 µM) |  |
| COCCCO[C@@H](Cn1c(=O)n([C@@H](C)C(=O)NC(C)C)c(=O)c2c(C)c(-n3nccn3)sc21)c1cc(F)ccc1OC [Compound I-86, (S)-2-(1-((R)-2-(5-fluoro-2-methoxyphenyl)-2-(3-methoxy-propoxy)ethyl)-5-methyl-2,4-dioxo-6-(2H-1,2,3-triazol-2-yl)-1,4-dihydrothieno[2,3-d]pyrimidin-3(2H)-yl)-N-isopropylpropanamide] | 1 to 5 | 1 to 5 |  |  |  |  |  |  |  |  | 10 to 40 | 10 to 40 |  |  |  |  |  |  |  |  | IC90 (Botrtyis cinerea (Bc); read-out: Concentration at 90% Inhibition Bc, Botrtyis cinerea, growth inhibition at 48 hours vs 2% DMSO control): 0.4 µg/mL (≈ 0.664 µM); IC90 (Botrtyis cinerea (Bc); read-out: Concentration at 90% Inhibition Bc, Botrtyis cinerea, growth inhibition vs 2% DMSO control at 48 hours): 0.4 µg/mL (≈ 0.664 µM); IC90 (Diplodia maydis (Dm); read-out: Concentration at 90% Inhibition Dm, Diplodia maydis, growth inhibition at 48 hours vs 2% DMSO control): 2 µg/mL (≈ 3.32 µM); IC90 (Diplodia maydis (Dm); read-out: Concentration at 90% Inhibition Dm, Diplodia maydis, growth inhibition vs 2% DMSO control at 48 hours): 2 µg/mL (≈ 3.32 µM); IC90 (Septoria tritici (St); read-out: Concentration at 90% Inhibition St, Septoria tritici, growth inhibition at 48 hours vs 2% DMSO control): > 50 µg/mL; IC90 (Septoria tritici (St); read-out: Concentration at 90% Inhibition St, Septoria tritici, growth inhibition vs 2% DMSO control at 48 hours): > 50 µg/mL; IC90 ([1]; read-out: Concentration at 90% Inhibition Cg, Collectotrichum graminicola, growth inhibition at 48 hours vs 2% DMSO control): 10 µg/mL (≈ 16.6 µM); IC90 ([1]; read-out: Concentration at 90% Inhibition Cg, Collectotrichum graminicola, growth inhibition vs 2% DMSO control at 48 hours): > 50 µg/mL; MIC (C. parapsilosis; read-out: MIC, C. parapsilosis ATCC 22019, Table 3a, 3 replicates, MIC recorded at 48 h): 2.1 to 4 µg/mL (≈ 3.48 to 6.64 µM); MIC (C. parapsilosis; read-out: MIC, C. parapsilosis ATCC 22019, Table 3b (additional results), 3 replicates, MIC recorded at 48 h): 1.01 to 2 µg/mL (≈ 1.68 to 3.32 µM); IC90 ([2]; read-out: Concentration at 90% Inhibition Pc, Phytophthora capsici, growth inhibition at 48 hours vs 2% DMSO control): > 50 µg/mL; IC90 ([2]; read-out: Concentration at 90% Inhibition Pc, Phytophthora capsici, growth inhibition vs 2% DMSO control at 48 hours): > 50 µg/mL; IC90 (Rhizoctonia solani (Rs); read-out: Concentration at 90% Inhibition Rs, Rhizoctonia solani, mycelial plugs, growth inhibition at 48 hours vs 2% DMSO control): 2 µg/mL (≈ 3.32 µM); IC90 (Rhizoctonia solani (Rs); read-out: Concentration at 90% Inhibition Rs, Rhizoctonia solani, mycelial plugs, growth inhibition vs 2% DMSO control at 48 hours): 2 µg/mL (≈ 3.32 µM); MIC (C. albicans; read-out: MIC, C. albicans ATCC 90028, Table 3a, 3 replicates, MIC recorded at 48 h): 2.1 to 4 µg/mL (≈ 3.48 to 6.64 µM); MIC (C. albicans; read-out: MIC, C. albicans ATCC 90028, Table 3b (additional results), 3 replicates, MIC recorded at 48 h): 2.01 to 4 µg/mL (≈ 3.34 to 6.64 µM) |
| COCCCO[C@@H](Cn1c(=O)n([C@H](C)C(=O)NC(C)C)c(=O)c2c(C)c(-n3nccn3)sc21)c1cc(F)ccc1OC [Compound I-87, (R)-2-(1-((R)-2-(5-fluoro-2-methoxyphenyl)-2-(3-methoxy-propoxy)ethyl)-5-methyl-2,4-dioxo-6-(2H-1,2,3-triazol-2-yl)-1,4-dihydrothieno[2,3-d]pyrimidin-3(2H)-yl)-N-isopropylpropanamide] | 1 to 5 | 1 to 5 | 0.08 (≈ 0.133 µM) | 0.08 (≈ 0.133 µM) | 0.4 (≈ 0.664 µM) | 0.4 (≈ 0.664 µM) | 10 (≈ 16.6 µM) | > 50 | 0.08 (≈ 0.133 µM) | 0.08 (≈ 0.133 µM) | 5 to 10 | 5 to 10 | 0.25 to 1 (≈ 0.415 to 1.66 µM) | 1.01 to 2 (≈ 1.68 to 3.32 µM) | > 50 | > 50 | 0.08 (≈ 0.133 µM) | 0.08 (≈ 0.133 µM) | 1.1 to 2 (≈ 1.83 to 3.32 µM) | 2.01 to 4 (≈ 3.34 to 6.64 µM) |  |
